# Assay results published in article PMC9533837 (Antiviral Research, 2003).
# Read-outs that look alike come from different tables or passages of the source.
# Assays:
# [1] = test system: VAR-GAR (1966 Brazil Garcia isolate of VAR minor); assay: organism not typed; type: cell-based, variola minor; conditions: for IC50: LLC-MK2, read-out: IC50 VAR-GAR LLC-MK2
# VAC Copenhagen [2] = assay: microbe, parasite or virus in culture; type: cell-based, vaccinia virus; conditions: for IC50: Orthopoxvirus vaccinia, LLC-MK2, read-out: IC50 VAC LLC-MK2
# VAC [3] = test system: VAC; parameters: species or system mice; conditions: mouse, in vivo
# VAC Copenhagen [4] = assay: microbe, parasite or virus in culture; type: cell-based, vaccinia virus; conditions: for IC50: Orthopoxvirus vaccinia, Vero, read-out: IC50 VAC Vero
# [5] = test system: MPX Zaire (V79-1-005-Scab); assay: organism not typed; type: cell-based, monkeypox; conditions: for IC50: LLC-MK2, read-out: IC50 MPX LLC-MK2
# CPX Brighton [6] = assay: organism not typed; type: cell-based, cowpox; conditions: for IC50: LLC-MK2, read-out: IC50 CPX LLC-MK2
# CPX Brighton [7] = assay: organism not typed; type: cell-based, cowpox; conditions: for IC50: Vero
# [8] = test system: MPX Zaire (V79-1-005-Scab); assay: organism not typed; type: cell-based, monkeypox; conditions: for IC50: Vero
# [9] = test system: VAR-BSH (1975 Bangladesh isolate of VAR major); assay: organism not typed; type: cell-based, variola major; conditions: for IC50: Vero
# [10] = test system: VAR-GAR (1966 Brazil Garcia isolate of VAR minor); assay: organism not typed; type: cell-based, variola minor; conditions: for IC50: Vero
# [11] = test system: VAR-BSH (1975 Bangladesh isolate of VAR major); assay: organism not typed; type: cell-based, variola major; conditions: for IC50: LLC-MK2, read-out: IC50 VAR-BSH LLC-MK2
# [12] = test system: VAR-YAM (1946 Japan Yamada isolate of VAR major); assay: organism not typed; type: cell-based, variola major; conditions: for IC50: LLC-MK2, read-out: IC50 VAR-YAM LLC-MK2
# CPX = test system: CPX; parameters: species or system mice; conditions: mouse, in vivo
# [13] = test system: VAR-YAM (1946 Japan Yamada isolate of VAR major); assay: organism not typed; type: cell-based, variola major; conditions: for IC50: Vero
# [14] = test system: DNA polymerase of CMV versus human DNA polymerase α; conditions: cited from earlier work
# [15] = test system: orthopoxviruses (VAR-BSH, VAR-YAM, VAR-GAR, MPX, CPX, VAC); assay: organism not typed; type: cell-based
# VAC [16] = assay: microbe, parasite or virus in culture; type: cell-based; conditions: Orthopoxvirus vaccinia, read-out: IC50 against VAC
# VAR isolate V68-59 = assay: organism not typed; type: cell-based, variola minor; conditions: Vero, read-out: IC50, VAR isolate V68-59
# VAR isolate Jee = assay: organism not typed; type: cell-based, variola; conditions: Vero, read-out: IC50, VAR isolate Jee
# VAR isolate Higgins = assay: organism not typed; type: cell-based, variola; conditions: Vero, read-out: IC50, VAR isolate Higgins
# VAR isolate 7125 = assay: organism not typed; type: cell-based, variola; conditions: Vero, read-out: IC50, VAR isolate 7125
# VAR isolate Hinden = assay: organism not typed; type: cell-based, variola; conditions: Vero, read-out: IC50, VAR isolate Hinden
# VAR isolate Rafig Lahore = assay: organism not typed; type: cell-based, variola; conditions: Vero, read-out: IC50, VAR isolate Rafig Lahore
# VAR isolate Rumbec = assay: organism not typed; type: cell-based, variola; conditions: Vero, read-out: IC50, VAR isolate Rumbec
# VAR isolate Iran 2602 = assay: organism not typed; type: cell-based, variola; conditions: Vero, read-out: IC50, VAR isolate Iran 2602
# VAR isolate V77-1605 = assay: organism not typed; type: cell-based, variola; conditions: Vero, read-out: IC50, VAR isolate V77-1605
# VAR isolate Minn124 = assay: organism not typed; type: cell-based, variola minor; conditions: Vero, read-out: IC50, VAR isolate Minn124
# VAR isolate V73-225 = assay: organism not typed; type: cell-based, variola; conditions: Vero, read-out: IC50, VAR isolate V73-225
# VAR isolate 7124 = assay: organism not typed; type: cell-based, variola; conditions: Vero, read-out: IC50, VAR isolate 7124
# VAR isolate Butler = assay: organism not typed; type: cell-based, variola minor; conditions: Vero, read-out: IC50, VAR isolate Butler
# VAR isolate Heidelberg = assay: organism not typed; type: cell-based, variola; conditions: Vero, read-out: IC50, VAR isolate Heidelberg
# VAR isolate V70-46 = assay: organism not typed; type: cell-based, variola; conditions: Vero, read-out: IC50, VAR isolate V70-46
# VAR isolate Horn = assay: organism not typed; type: cell-based, variola; conditions: Vero, read-out: IC50, VAR isolate Horn
# all VAR isolates tested = assay: organism not typed; type: cell-based, variola; conditions: Vero, read-out: IC50, VAR mean
# VAR isolate V74-227 = assay: organism not typed; type: cell-based, variola; conditions: Vero, read-out: IC50, VAR isolate V74-227
# VAR isolate K1629 = assay: organism not typed; type: cell-based, variola; conditions: Vero, read-out: IC50, VAR isolate K1629
# VAR isolate Eth17 = assay: organism not typed; type: cell-based, variola; conditions: Vero, read-out: IC50, VAR isolate Eth17
# VAR isolate V70-222 = assay: organism not typed; type: cell-based, variola; conditions: Vero, read-out: IC50, VAR isolate V70-222
# VAR isolate Somalia = assay: organism not typed; type: cell-based, variola; conditions: Vero, read-out: IC50, VAR isolate Somalia
# VAR isolate V72-119 = assay: organism not typed; type: cell-based, variola; conditions: Vero, read-out: IC50, VAR isolate V72-119
# VAR isolate 102 = assay: organism not typed; type: cell-based, variola; conditions: Vero, read-out: IC50, VAR isolate 102
# VAR isolate Shahzaman = assay: organism not typed; type: cell-based, variola; conditions: Vero, read-out: IC50, VAR isolate Shahzaman
# VAR isolate V73-175 = assay: organism not typed; type: cell-based, variola; conditions: Vero, read-out: IC50, VAR isolate V73-175
compound,measurement,setting,value
"Nc1nccc2c1ncn2[C@@H]1C[C@@H](CO)[C@H](O)[C@@H]1O [C-ca3-Ado, Carbocyclic 3-deazaadenosine]",IC50 VAR-GAR LLC-MK2,[1],4.4 µg/mL
same,Therapeutic index (TI) VAR-GAR LLC-MK2,[1],22.7
same,IC50 VAC LLC-MK2,VAC Copenhagen [2],3.4 µg/mL
same,Therapeutic index (TI) VAC LLC-MK2,VAC Copenhagen [2],29.4
same,protective effect on VAC-infected mice,VAC [3],modest protective effect
same,IC50 VAC Vero,VAC Copenhagen [4],1.2 µg/mL
same,Therapeutic index (TI) VAC Vero,VAC Copenhagen [4],83.3
same,IC50 MPX LLC-MK2,[5],0.8 µg/mL
same,Therapeutic index (TI) MPX LLC-MK2,[5],125
same,IC50 CPX LLC-MK2,CPX Brighton [6],25.2 µg/mL
same,Therapeutic index (TI) CPX LLC-MK2,CPX Brighton [6],4.0
same,IC50 CPX Vero,CPX Brighton [7],>100 µg/mL
same,Therapeutic index (TI) CPX Vero,CPX Brighton [7],1.0
same,IC50 MPX Vero,[8],0.4 µg/mL
same,Therapeutic index (TI) MPX Vero,[8],250
same,Cytotoxicity TC50 LLC-MK2,LLC-MK2 cells,>100 µg/mL
same,IC50 VAR-BSH Vero,[9],1.2 µg/mL
same,Therapeutic index (TI) VAR-BSH Vero,[9],83.3
same,IC50 VAR-GAR Vero,[10],1.6 µg/mL
same,Therapeutic index (TI) VAR-GAR Vero,[10],62.5
same,IC50 VAR-BSH LLC-MK2,[11],1.6 µg/mL
same,Therapeutic index (TI) VAR-BSH LLC-MK2,[11],62.5
same,IC50 VAR-YAM LLC-MK2,[12],1.4 µg/mL
same,Therapeutic index (TI) VAR-YAM LLC-MK2,[12],71.4
same,Cytotoxicity TC50 Vero,Vero cells,>100 µg/mL
same,protective effect on CPX-infected mice,CPX,modest protective effect
same,IC50 VAR-YAM Vero,[13],5.3 µg/mL
same,Therapeutic index (TI) VAR-YAM Vero,[13],18.9
"Nc1ccn(CC(CO)OCP(=O)(O)OP(=O)(O)OP(=O)(O)O)c(=O)n1 (stereo not shown) [Cidofovir diphosphate, cidofovir 5′-diphosphate]",lower concentration inhibiting DNA polymerase of CMV than human DNA polymerase α,[14],10 fold
"CC(C)(C)C(=O)OCOP(=O)(COCCn1cnc2c(N)ncnc21)OCOC(=O)C(C)(C)C [bis-POM-PMEA, 9-[2-[[bis[(pivaloyloxy)-methoxy]phosphinyl]methoxy]ethyl]adenine]",Therapeutic index (TI) VAR-GAR LLC-MK2,[1],1.2
same,IC50,[1],85 µg/mL
same,Therapeutic index (TI) VAC LLC-MK2,VAC Copenhagen [2],1.5
same,IC50,VAC Copenhagen [2],66.2 µg/mL
same,inhibitory activity against the orthopoxviruses tested (in words),[15],Neither PMEA nor bis-POM-PMEA was effective
same,IC50,VAC [16],55.1 µg/mL
same,Therapeutic index (TI) VAC Vero,VAC Copenhagen [4],2.3
same,IC50,VAC Copenhagen [4],44 µg/mL
same,Therapeutic index (TI) MPX LLC-MK2,[5],1.0
same,IC50,[5],> 100 µg/mL
same,Therapeutic index (TI) CPX LLC-MK2,CPX Brighton [6],1.2
same,IC50,CPX Brighton [6],86 µg/mL
same,Therapeutic index (TI) CPX Vero,CPX Brighton [7],1.3
same,IC50,CPX Brighton [7]; read-out: IC50 CPX Vero,75.5 µg/mL
same,Therapeutic index (TI) MPX Vero,[8],1.0
same,IC50,[8]; read-out: IC50 MPX Vero,> 100 µg/mL
same,Cytotoxicity TC50 LLC-MK2,LLC-MK2 cells; rhesus monkey,>100 µg/mL
same,Therapeutic index (TI) VAR-BSH Vero,[9],1.2
same,IC50,[9]; read-out: IC50 VAR-BSH Vero,84.2 µg/mL
same,Therapeutic index (TI) VAR-GAR Vero,[10],1.1
same,IC50,[10]; read-out: IC50 VAR-GAR Vero,90 µg/mL
same,Therapeutic index (TI) VAR-BSH LLC-MK2,[11],1.0
same,IC50,[11],> 100 µg/mL
same,Therapeutic index (TI) VAR-YAM LLC-MK2,[12],1.0
same,IC50,[12],> 100 µg/mL
same,Cytotoxicity TC50 Vero,Vero cells; African green monkey,>100 µg/mL
same,Therapeutic index (TI) VAR-YAM Vero,[13],1.0
same,IC50,[13]; read-out: IC50 VAR-YAM Vero,> 100 µg/mL
"Nc1ccn(C[C@H]2COP(=O)(O)CO2)c(=O)n1 [cHPMPC, 1-[(S)-2-hydroxy-2-oxo-1-[4,2-dioxaphosphorinan-5-yl]methyl]cytosine]",IC50,VAR isolate V68-59,20 µg/mL
same,IC50,VAR isolate Jee,7 µg/mL
same,Therapeutic index (TI) VAR-GAR LLC-MK2,[1],16.9
same,IC50,[1],5.9 µg/mL
same,IC50,VAR isolate Higgins,17 µg/mL
same,IC50,VAR isolate 7125,24 µg/mL
same,Therapeutic index (TI) VAC LLC-MK2,VAC Copenhagen [2],22.7
same,IC50,VAC Copenhagen [2],4.4 µg/mL
same,IC50,VAR isolate Hinden,19 µg/mL
same,IC50,[15]; read-out: mean IC50 against the panel of viruses,21.6 ± 7.6 µg/mL
same,IC50,VAR isolate Rafig Lahore,18 µg/mL
same,IC50,VAR isolate Rumbec,16 µg/mL
same,IC50,VAR isolate Iran 2602,7 µg/mL
same,IC50,VAR isolate V77-1605,22 µg/mL
same,Therapeutic index (TI) VAC Vero,VAC Copenhagen [4],4.4
same,IC50,VAC Copenhagen [4],18.1 µg/mL
same,IC50,VAR isolate Minn124,9 µg/mL
same,IC50,VAR isolate V73-225,9 µg/mL
same,Therapeutic index (TI) MPX LLC-MK2,[5],29.4
same,IC50,[5],3.4 µg/mL
same,Therapeutic index (TI) CPX LLC-MK2,CPX Brighton [6],1.0
same,IC50,CPX Brighton [6],> 100 µg/mL
same,IC50,VAR isolate 7124,26 µg/mL
same,IC50,VAR isolate Butler,6 µg/mL
same,IC50,VAR isolate Heidelberg,14 µg/mL
same,Therapeutic index (TI) CPX Vero,CPX Brighton [7],3.0
same,IC50,"CPX Brighton [7]; read-out: IC50, CPX",52 µg/mL
same,IC50,CPX Brighton [7]; read-out: IC50 CPX Vero,26.9 µg/mL
same,IC50,VAR isolate V70-46,13 µg/mL
same,IC50,VAR isolate Horn,12 µg/mL
same,Therapeutic index (TI) MPX Vero,[8],6.5
same,IC50,"[8]; read-out: IC50, MPX",21 µg/mL
same,IC50,[8]; read-out: IC50 MPX Vero,12.3 µg/mL
same,Cytotoxicity TC50 LLC-MK2,LLC-MK2 cells; rhesus monkey,>100 µg/mL
same,IC50,all VAR isolates tested,17 ± 2 µg/mL
same,IC50,VAR isolate V74-227,9 µg/mL
same,Therapeutic index (TI) VAR-BSH Vero,[9],3.2
same,IC50,"[9]; read-out: IC50, VAR isolate Bangladesh",17 µg/mL
same,IC50,[9]; read-out: IC50 VAR-BSH Vero,25.3 µg/mL
same,IC50,VAR isolate K1629,25 µg/mL
same,IC50,VAR isolate Eth17,17 µg/mL
same,IC50,VAR isolate V70-222,23 µg/mL
same,Therapeutic index (TI) VAR-GAR Vero,[10],10.1
same,IC50,"[10]; read-out: IC50, VAR isolate Garcia",4 µg/mL
same,IC50,[10]; read-out: IC50 VAR-GAR Vero,7.9 µg/mL
same,Therapeutic index (TI) VAR-BSH LLC-MK2,[11],4.9
same,IC50,[11],20.3 µg/mL
same,IC50,VAR isolate Somalia,8 µg/mL
same,IC50,VAR isolate V72-119,18 µg/mL
same,Therapeutic index (TI) VAR-YAM LLC-MK2,[12],16.4
same,IC50,[12],6.1 µg/mL
same,IC50,VAR isolate 102,38 µg/mL
same,IC50,VAR isolate Shahzaman,14 µg/mL
same,Cytotoxicity TC50 Vero,Vero cells; African green monkey,80.0 µg/mL
same,IC50,VAR isolate V73-175,16 µg/mL
same,Therapeutic index (TI) VAR-YAM Vero,[13],2.8
same,IC50,"[13]; read-out: IC50, VAR isolate Yamada",31 µg/mL
same,IC50,[13]; read-out: IC50 VAR-YAM Vero,28.2 µg/mL
